The values that follow come from article PMC9321647, “Curcumin-Based β-Diketo Ligands for Ga^3+: Thermodynamic Investigation of Potential Metal-Based Drugs” (Pharmaceuticals, 2022).

Type in all cases: physicochemical
Series [1] is described as follows: Kinetic stability of ligands in simulated physiological conditions (UV-Vis). The note with it: for Stability: percentage of the residual ligand after 4 h: PBS, pH 7.4, 37 °C in darkness; for Stability ranking (residual ligand after 4 h): rank among the 7 ligands, 1 = most stable. On the procedure:
The chemical stability of ligands and metal complexes at the M:L 1:L molar ratio at 37 °C in darkness was evaluated by UV−Vis spectroscopy as a change in absorbance in the 250−600 nm range over an overall period of 8 h. Solutions (5.0 × 10^–5 mol L^–1) of the ligands were prepared in 0.1 mol L^–1 phosphate-buffered solution (PBS) at pH 7.4. Spectra were recorded every 30 min. All profiles were linearized as the hyperbolic function defined by Equation (2), which represents an empirical model that describes drug decomposition or release well [42]:(2) t/f%=at+b where f% is the percentage of the residual compound at time t (min) referred to the starting concentration at time zero determined by reading the absorbance at λmax.

Series [2] is described as follows: Spectrophotometric pH-metric titrations of Ga^3+:ligand systems (stability constants, pGa, speciation). The note with it: for log β 112 overall stability constant (Ga^3+) / log β 124 overall stability constant (Ga^3+) / logK11 apparent formation constant (Ga^3+, M:L 1:1) / logK12 apparent formation constant (Ga^3+, M:L 1:2): 298 K; for log β 112 overall stability constant (Ga^3+) / log β 124 overall stability constant (Ga^3+): HypSpec; for logK11 apparent formation constant (Ga^3+, M:L 1:1) / logK12 apparent formation constant (Ga^3+, M:L 1:2): estimated from logβMLH; for Prevailing Species (pH 5.5) / Prevailing Species (pH 7.4): Ga^3+ complex species; for Prevailing Species (pH 7.4): ** possible formation of gallium hydroxide species; for pGa (−log[Ga^3+]free): [Ga^3+]total = 1 μM, [L]total = 10 μM, pH 7.4, 25 °C. On the procedure:
UV–visible spectra were recorded with a JASCO V-570 UV/Vis/NIR spectrophotometer at 298 K in the 250–600 nm spectral range employing quartz cells (1 cm optical path). To perform spectrophotometric titrations, ligands (denoted generally as L in the following) were dissolved in methanol to give a mother solution (2.50 mM), that was then diluted in water in order to obtain a final concentration of 50 μM. The metal/ligand (M:L) solutions were obtained by adding appropriate quantities of Ga(NO3)3 as methanol solutions (5–10 mM) in order to obtain the metal-to-ligand 1:1 molar ratio (L = 50 μM and V = 25 mL). For both L and M:L systems, pH (initial value of about 5) was varied by adding small amounts (<1 μL) of concentrated NaOH (4 M) up to ca. pH 11, thus to consider volume variations negligible. To evaluate the complexation ratio, constant additions of the M solution (10 µL each time, M = 10^–2 M) were dropped into the ligand solution (V = 25 mL, L = 50 μM) using a micropipette in order to reach different M:L molar ratios. A constant ionic strength (NaNO3, 0.1 M) was maintained in all experiments. Spectrophotometric investigations of iron(III) systems were performed in the same conditions; the Fe^3+ solution was freshly prepared in methanol starting from Fe(NO3)3·9H2O. The overall protonation constants (logβqr) and the overall stability constants of metal complexes (logβpqr) were evaluated from spectrophotometric data. The stability constants (βpqr), defined by the following equations:(3) pM^m++qL^l^−+rH^+⇌MpLqHr(mp−lq+r) (4) βpqr=[MpLqHr(mp−lq+r)]/[M^m+]^p·[L^l−]^q·[H^+]^r where L is the ligand in the completely dissociated form and H is proton, were refined using least-squares calculation in HypSpec. The results of least-squares calculation include the standard deviations and correlation coefficients of the refined parameters. The quantities are obtained by performing error propagation calculation from the experimental errors onto the parameters. The stability constant refinement furnishes least-squares estimates of the standard deviation, σ, of the stability constant β. The error on logβ is calculated as follows: σ(logβ) = [log(β + σ) − log(β − σ)]/2.
Hydroxide species, such as [Ga(OH)2]^+, were taken into account for calculations. The hydrolysis constants for Ga^3+ are as follows: logβ1,1,0 = −3.93; logβ2,1,0 = −7.73; logβ3,1,0 = −12.38; logβ4,1,0 = −15.96; logβ32,13,0 = −66.3; logβ3,1,0(s) = −3.54 [43]; pGa is defined as (−log[Ga^3+]free) and is calculated at specific conditions (Ga^3+total = 1 μM, Ltotal = 10 μM, pH 7.4, 25 °C). For the calculation of the iron(III) overall stability constants, the presence of [Fe(OH)]^2+, [Fe(OH)2]^+ and [Fe(OH)3] species was taken into account.

Series [3] is described as follows: Iron-chelating ability by spectrophotometric analysis / transmetalation. To be noted: for logβ124(Fe): Fe^3+, same conditions as Ga^3+ systems. The source says: Compounds 4 and 5 were selected to evaluate iron-chelating ability by spectrophotometric analysis in the same conditions as the ones applied to carry out investigations on Ga^3+ systems. The calculated logβ124(Fe) values were 56.2 (2) and 58.6 (4) for 4 and 5, respectively. From the difference between the logβ values of the complexes with two metal ions, it is possible to calculate the apparent stability constant K (logK = logβ124(Fe) − logβ124(Ga)) associated with the transmetalation reaction (Equation (1)). (1) Fe^3++[Ga(H2L)2]^+ ⇆ […]+[Fe(H2L)2]^+
UV–visible spectra were recorded with a JASCO V-570 UV/Vis/NIR spectrophotometer at 298 K in the 250–600 nm spectral range employing quartz cells (1 cm optical path). To perform spectrophotometric titrations, ligands (denoted generally as L in the following) were dissolved in methanol to give a mother solution (2.50 mM), that was then diluted in water in order to obtain a final concentration of 50 μM. The metal/ligand (M:L) solutions were obtained by adding appropriate quantities of Ga(NO3)3 as methanol solutions (5–10 mM) in order to obtain the metal-to-ligand 1:1 molar ratio (L = 50 μM and V = 25 mL). For both L and M:L systems, pH (initial value of about 5) was varied by adding small amounts (<1 μL) of concentrated NaOH (4 M) up to ca. pH 11, thus to consider volume variations negligible. […] The overall protonation constants (logβqr) and the overall stability constants of metal complexes (logβpqr) were evaluated from spectrophotometric data. […] The quantities are obtained by performing error propagation calculation from the experimental errors onto the parameters. […] The error on logβ is calculated as follows: σ(logβ) = [log(β + σ) − log(β − σ)]/2.
Hydroxide species, such as [Ga(OH)2]^+, were taken into account for calculations. The hydrolysis constants for Ga^3+ are as follows: logβ1,1,0 = −3.93; logβ2,1,0 = −7.73; logβ3,1,0 = −12.38; logβ4,1,0 = −15.96; logβ32,13,0 = −66.3; logβ3,1,0(s) = −3.54 [43]; pGa is defined as (−log[Ga^3+]free) and is calculated at specific conditions (Ga^3+total = 1 μM, Ltotal = 10 μM, pH 7.4, 25 °C). […]

Series [4] in a line: Keto-enol/diketo tautomer amounts by 1H NMR. The note with it: molar percentage, MeOD-d4, 298 K; for KE (%) amount of keto–enol form: for 2 includes KE form of the Z isomer (6%). The method, then: NMR spectra were recorded by means of a Bruker Biospin FT-NMR AVANCE III HD (600 MHz) spectrometer equipped with a CryoProbe BBO H&F 5 mm in inverse detection. The nominal frequencies were 150.90 MHz for ^13C and 600.13 MHz for ^1H, respectively. For each sample, 1–5 mg were weighed and diluted up to 0.6 mL with a proper solvent in a 5 mm NMR tube; 90° pulse was calibrated for each sample, and standard NMR parameters were used to achieve quantitative results (relaxation delay, 10 s). Proton and carbon chemical shifts are given in parts per million (ppm) versus external TMS and were determined by reference to the solvent residual signals. Typical 2D homo- and heteronuclear techniques were used for assignment, i.e., ^1H,^1H COSY, ^1H,^13C HSQC, ^1H,^13C HMBC. NMR investigations of Ga^3+:L systems were performed in MeOD-d4 by adding small amounts of a Ga(NO3)3 solution (10 μL each) to 1 mM ligand solution (0.6 mL) until reaching the desired metal-to-ligand molar ratio. The complexation reaction is fast, and spectra were registered few minutes after the addition. Two-dimensional ^1H,^13C heteronuclear multiple bond correlation (HMBC) experiments (hmbcgpndqf in Bruker library) were performed via heteronuclear zero and double quantum coherence, optimized on long-range couplings (^3/4JHC = 8 Hz), with no decoupling during acquisition, and gradient pulses were used for selection. The relative percentages of the isomeric forms were estimated on the basis of the NMR data. Particularly, ^1H NMR spectra were acquired in quantitative conditions being D1 (relaxation delay) at least five times the T1 of the slowest relaxing signal of interest. The raw data were Fourier-transformed, and then the processing was performed by zero filling (SI = TD), line broadening (lb 0.3 Hz), accurate phasing and correcting the baseline. The most isolated signals were selected for integration, i.e., the vinyl protons (H-3 and H-4), and an average of the integrated area (A) of H-3 and H-4 was used for relative quantitation, according to the following equation: %Tautomeri=(A(H−3)i+(A(H−4)i)/2/∑i(A(H−3)i+(A(H−4)i)/2×100

On to “2-((4Z,6E)-5-hydroxy-7-(4-hydroxyphenyl)-4-((E)-3-(4-hydroxy-3-ethoxyphenyl) acryloyl) hepta-4,6-dien-1-yl)isoindoline-1,3-dione [Compound 5]”, for which, in series [1], the “Stability: percentage of the residual ligand after 4 h” value was 52% and the “Stability ranking (residual ligand after 4 h)” value is given as 5. For the same compound, in series [2], the “log β 112 overall stability constant (Ga^3+)” value was 28.54 (3); the “log β 124 overall stability constant (Ga^3+)” value was 57.00 (1); the “logK11 apparent formation constant (Ga^3+, M:L 1:1)” value is recorded as 8.09; the “logK12 apparent formation constant (Ga^3+, M:L 1:2)” value was 16.1. For the same compound, in series [2], the “Prevailing Species (pH 5.5)” value is “[Ga(H2L)2]^+”, the “Prevailing Species (pH 7.4)” value was “[Ga(H2L)2]^+” and the “pGa (−log[Ga^3+]free)” value is recorded as 23.2. In series [3], the “logβ124(Fe)” value is 58.6 (4). Also, in series [4], the “KK (%) amount of diketo form” value is 30% and the “KE (%) amount of keto–enol form” value was found to be 70%.

Take `COc1cc(/C=C/C(=O)C(CCCN2C(=O)c3ccccc3C2=O)C(=O)/C=C/c2ccc(O)c(OC)c2)ccc1O` [Compound 4]: in series [1], the “Stability: percentage of the residual ligand after 4 h” value is 42% and the “Stability ranking (residual ligand after 4 h)” value is recorded as 7. For the same compound, in series [2], the “log β 112 overall stability constant (Ga^3+)” value was 28.48 (5); the “log β 124 overall stability constant (Ga^3+)” value is 55.33 (5); the “logK11 apparent formation constant (Ga^3+, M:L 1:1)” value is given as 8.04; the “logK12 apparent formation constant (Ga^3+, M:L 1:2)” value was 14.45. In addition, in series [2], the “Prevailing Species (pH 5.5)” value is “[Ga(H2L)2]^+”, the “Prevailing Species (pH 7.4)” value is “[Ga(H2L)2]^+” and the “pGa (−log[Ga^3+]free)” value came out at 21.5. Besides, the “LogK apparent stability constant of transmetalation (logβ124(Fe) − logβ124(Ga))” value in series [3] (Fe^3+ + [Ga(H2L)2]^+ exchange) was 0.9(3). Further, in series [3], the “logβ124(Fe)” value is reported as 56.2 (2). Moreover, in series [4], the “KK (%) amount of diketo form” value is listed as 53% and the “KE (%) amount of keto–enol form” value amounted to 47%.
